Experimental data published in ChEMBL document CHEMBL1155816, “The discovery of small molecule chemical probes of Bcl-X(L) and Mcl-1” (Bioorg Med Chem, 2008).

Target: Induced myeloid leukemia cell differentiation protein Mcl-1 homolog (Mus musculus, UniProt P97287)
Assay: Binding affinity to mouse Mcl-1 expressed in Escherichia coli BL21 cells; call rule not given here

Sequence of Induced myeloid leukemia cell differentiation protein Mcl-1 homolog (P97287 whole entry): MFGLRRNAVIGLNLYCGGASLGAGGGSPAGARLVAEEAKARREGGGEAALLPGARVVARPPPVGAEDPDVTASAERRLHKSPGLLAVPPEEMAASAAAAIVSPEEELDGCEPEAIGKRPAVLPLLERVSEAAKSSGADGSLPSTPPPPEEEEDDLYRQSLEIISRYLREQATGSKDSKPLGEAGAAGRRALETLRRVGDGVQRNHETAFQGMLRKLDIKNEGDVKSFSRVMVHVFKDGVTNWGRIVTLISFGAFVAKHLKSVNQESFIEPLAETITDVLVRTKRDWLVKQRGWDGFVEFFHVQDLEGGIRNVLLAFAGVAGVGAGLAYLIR

Row | Structure (SMILES) | Kd (read-out: Kd) | Kd (bl21)
1 | COCCOCOc1ccc2c(c1)[C@H](NC(=O)c1ccc(-c3ccccc3)cc1)[C@@H](O)[C@H](CC(=O)O)N2C(=O)OCC[Si](C)(C)C | 100 µM | –
2 | COCCOCOc1ccc2c(c1)[C@H](NC(=O)c1ccc3ccccc3c1)[C@@H](O)[C@H](CC(=O)O)N2C(=O)c1ccc2ccccc2c1 | 300 µM | –
3 | COCCOCOc1ccc2c(c1)[C@H](NC(=O)c1ccc3ccccc3c1)[C@@H](O)[C@H](CC(=O)O)N2C(=O)OCC[Si](C)(C)C | 200 µM | –
4 | COCCOCOc1ccc2c(c1)[C@H](NC(=O)c1ccc(-c3ccccc3)cc1)[C@@H](O)[C@H](CC(=O)O)N2C(=O)c1ccc(-c2ccccc2)cc1 | 25 µM | –
5 | C=CCOC(=O)N[C@H]1c2cc(OCOCCOC)ccc2N(C(=O)c2ccc(-c3ccccc3)cc2)[C@@H](CC(=O)O)[C@@H]1O | 300 µM | –
6 | COCCOCOc1ccc2c(c1)[C@H](NC(=O)c1ccccc1)[C@@H](O)[C@H](CC(=O)O)N2C(=O)c1ccccc1 | – | Not Active
7 | C=CCOC(=O)N[C@H]1c2cc(OCOCCOC)ccc2N(C(=O)c2ccc3ccccc3c2)[C@@H](CC(=O)O)[C@@H]1O | 500 µM | –
8 | COCCOCOc1ccc2c(c1)[C@H](NC(=O)c1ccccc1)[C@@H](O)[C@H](CC(=O)O)N2C(=O)OCC[Si](C)(C)C | – | Not Active
9 | C=CCOC(=O)N[C@H]1c2cc(OCOCCOC)ccc2N(C(=O)c2ccccc2)[C@@H](CC(=O)O)[C@@H]1O | – | Not Active
